Numbered stars: 1 amine (or outer) side, 2 acyl side, 3 side chain; on linkers, the order of the positions; unused ones are H or OH. Square brackets hold non-standard residues; d marks the D form. Side chains are listed from the residue outwards. Peptide text beside a SMILES is read from it. * marks the point of attachment. C20 diacid = O=C(O)CCCCCCCCCCCCCCCCCCC(=O)*; C18 diacid = O=C(O)CCCCCCCCCCCCCCCCC(=O)*; αMePhe(2-F) = C[C@](N)(Cc1ccccc1F)C(=O)O; γGlu = O=C(O)[C@H](CCC(=O)[*:2])N[*:1]; αMeY = C[C@](N)(Cc1ccc(O)cc1)C(=O)O; 4Pal = N[C@@H](Cc1ccncc1)C(=O)O; αMeL = CC(C)C[C@](C)(N)C(=O)O; Orn = NCCC[C@H](N)C(=O)O; AEEA = NCCOCCOCC(=O)O; Aib = CC(C)(N)C(=O)O
Columns and labels:
[1] = target: human GLP-1 receptor (GLP-1R) (Homo sapiens, UniProt P43220); experiment: cAMP pharmacological functional assay in presence of casein, hGLP-1R; format: cell-based; conditions: HEK293 cells expressing hGLP-1R, 0.1% Casein, geometric mean; read-out: hGLP1R cAMP Rel EC50 nM (SEM, n)
human GLP-1 receptor (GLP-1R), sequence (P43220 24-463): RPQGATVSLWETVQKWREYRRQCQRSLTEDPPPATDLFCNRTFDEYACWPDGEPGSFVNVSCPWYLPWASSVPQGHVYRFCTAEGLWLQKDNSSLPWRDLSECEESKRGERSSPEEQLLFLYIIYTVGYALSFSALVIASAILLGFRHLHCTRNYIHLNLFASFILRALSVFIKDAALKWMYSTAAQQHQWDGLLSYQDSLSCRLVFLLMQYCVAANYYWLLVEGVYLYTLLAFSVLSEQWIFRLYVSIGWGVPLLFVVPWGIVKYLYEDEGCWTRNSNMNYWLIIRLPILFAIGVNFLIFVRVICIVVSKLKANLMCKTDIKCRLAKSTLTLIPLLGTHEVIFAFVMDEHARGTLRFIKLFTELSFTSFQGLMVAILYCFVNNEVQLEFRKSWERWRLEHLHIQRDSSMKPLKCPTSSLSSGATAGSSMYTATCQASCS

[2] = target: T1, gastric inhibitory peptide receptor (GIPR) (Homo sapiens, UniProt P48546); experiment: cAMP pharmacological functional assay in presence of casein, hGIPR; format: cell-based; conditions: HEK293 cells expressing hGIPR, 0.1% Casein, geometric mean; read-out: hGIPR cAMP Rel EC50 nM (SEM, n)
T1 sequence (P48546 22-466): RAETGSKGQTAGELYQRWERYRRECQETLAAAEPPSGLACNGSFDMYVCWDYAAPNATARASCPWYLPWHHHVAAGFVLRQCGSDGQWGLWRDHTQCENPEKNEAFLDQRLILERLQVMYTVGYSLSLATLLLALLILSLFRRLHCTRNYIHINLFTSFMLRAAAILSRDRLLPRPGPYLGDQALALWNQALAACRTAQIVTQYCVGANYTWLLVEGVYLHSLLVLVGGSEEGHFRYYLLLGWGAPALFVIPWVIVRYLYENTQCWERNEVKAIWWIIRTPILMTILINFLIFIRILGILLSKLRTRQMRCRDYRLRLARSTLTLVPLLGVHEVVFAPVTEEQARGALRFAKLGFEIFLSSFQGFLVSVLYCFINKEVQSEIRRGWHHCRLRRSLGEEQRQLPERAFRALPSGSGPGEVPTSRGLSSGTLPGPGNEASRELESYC

CC[C@H](C)[C@H](NC(=O)[C@H](CC(C)C)NC(=O)[C@H](Cc1ccc(O)cc1)NC(=O)[C@@H](CCC(=O)O)NC(=O)[C@@H](NC(=O)[C@H](Cc1ccccc1)NC(=O)[C@@H](NC(=O)C(C)(C)NC(=O)[C@H](CCC(N)=O)NC(=O)[C@H](C)NC(=O)[C@H](CCCCNC(=O)COCCOCCNC(=O)COCCOCCNC(=O)[C@@H](N)CCCCNC(=O)CCCCCCCCCCCCCCCCCCC(=O)O)NC(=O)[C@H](CCC(=O)O)NC(=O)[C@H](CC(=O)O)NC(=O)[C@H](CC(C)C)NC(=O)C(C)(CC(C)C)NC(=O)[C@@H](NC(=O)[C@H](CO)NC(=O)[C@H](Cc1c[nH]cn1)NC(=O)[C@H](CC(=O)O)NC(=O)[C@H](CO)NC(=O)[C@@H](NC(=O)C(C)(Cc1ccccc1F)NC(=O)[C@@H](NC(=O)CNC(=O)[C@H](CCC(=O)O)NC(=O)C(C)(C)NC(=O)[C@@H](N)Cc1ccc(O)cc1)[C@@H](C)O)[C@@H](C)O)[C@@H](C)CC)[C@@H](C)O)[C@@H](C)CC)C(=O)N[C@@H](CCC(=O)O)C(=O)NCC(=O)NCC(=O)N1CCC[C@H]1C(=O)N[C@@H](CO)C(=O)N[C@@H](CO)C(=O)NCC(=O)N[C@@H](C)C(=O)N1CCC[C@H]1C(=O)N1CCC[C@H]1C(=O)N1CCC[C@H]1C(=O)N[C@@H](CO)C(N)=O (some centres unmarked) [Example 175]
EC50 [1]: 1.11 nM
EC50 [2]: 0.0881 nM

CC[C@H](C)[C@H](NC(=O)[C@H](CC(C)C)NC(=O)[C@H](Cc1ccc(O)cc1)NC(=O)[C@@H](CCC(=O)O)NC(=O)[C@@H](NC(=O)[C@H](Cc1ccccc1)NC(=O)[C@H](CCC(=O)O)NC(=O)C(C)(C)NC(=O)[C@H](CCC(N)=O)NC(=O)[C@H](C)NC(=O)[C@H](CCCCN)NC(=O)[C@H](CCCN)NC(=O)[C@H](CC(=O)O)NC(=O)[C@H](CC(C)C)NC(=O)[C@](C)(CC(C)C)NC(=O)[C@@H](NC(=O)[C@H](CO)NC(=O)[C@H](Cc1ccc(O)cc1)NC(=O)[C@H](CC(=O)O)NC(=O)[C@H](CO)NC(=O)[C@@H](NC(=O)[C@](C)(Cc1ccccc1F)NC(=O)[C@@H](NC(=O)CNC(=O)[C@H](CCC(=O)O)NC(=O)C(C)(C)NC(=O)[C@@H](N)Cc1ccc(O)cc1)[C@@H](C)O)[C@@H](C)O)[C@@H](C)CC)[C@@H](C)CC)C(=O)N[C@@H](CCC(=O)O)C(=O)NCC(=O)NCC(=O)N1CCC[C@H]1C(=O)N[C@@H](CO)C(=O)N[C@@H](CO)C(=O)NCC(=O)N[C@@H](C)C(=O)N1CCC[C@H]1C(=O)N1CCC[C@H]1C(=O)N1CCC[C@H]1C(=O)N[C@@H](CO)C(N)=O [Example 280] (H-Y[Aib]EGT[αMePhe(2-F)]TSDYSI[αMeL]LD[Orn]KAQ[Aib]EFI[dE]YLIEGGPSSGAPPPS-NH2)
EC50 [1]: 0.0767 nM
EC50 [2]: 0.204 nM

CC[C@H](C)[C@H](NC(=O)[C@H](CC(C)C)NC(=O)[C@H](Cc1ccc(O)cc1)NC(=O)[C@@H](CCC(=O)O)NC(=O)[C@@H](NC(=O)[C@H](Cc1ccccc1)NC(=O)[C@@H](NC(=O)C(C)(C)NC(=O)[C@H](CCC(N)=O)NC(=O)[C@H](C)NC(=O)[C@H](CCCCNC(=O)COCCOCCNC(=O)COCCOCCNC(=O)CC[C@H](NC(=O)CCCCCCCCCCCCCCCCC(=O)O)C(=O)O)NC(=O)[C@H](CCC(=O)O)NC(=O)[C@H](CC(=O)O)NC(=O)[C@H](CC(C)C)NC(=O)[C@](C)(CC(C)C)NC(=O)[C@@H](NC(=O)[C@H](CO)NC(=O)[C@H](Cc1c[nH]cn1)NC(=O)[C@H](CC(=O)O)NC(=O)[C@H](CO)NC(=O)[C@@H](NC(=O)[C@](C)(Cc1ccccc1F)NC(=O)[C@@H](NC(=O)CNC(=O)[C@H](CCC(=O)O)NC(=O)C(C)(C)NC(=O)[C@@H](N)Cc1ccc(O)cc1)[C@@H](C)O)[C@@H](C)O)[C@@H](C)CC)[C@@H](C)O)[C@@H](C)CC)C(=O)N[C@@H](CCC(=O)O)C(=O)NCC(=O)NCC(=O)N1CCC[C@H]1C(=O)N[C@@H](CO)C(=O)N[C@@H](CO)C(=O)NCC(=O)N[C@@H](C)C(=O)N1CCC[C@H]1C(=O)N1CCC[C@H]1C(=O)N1CCC[C@H]1C(=O)N[C@@H](CO)C(N)=O [Example 169] (H-Y[Aib]EGT[αMePhe(2-F)]TSDHSI[αMeL]LDEK([AEEA-AEEA-γGlu-C18 diacid])AQ[Aib]TFI[dE]YLIEGGPSSGAPPPS-NH2)
EC50 [1]: 3.37 nM
EC50 [2]: 0.86 nM

CC[C@H](C)[C@H](NC(=O)[C@H](CC(C)C)NC(=O)[C@H](Cc1ccc(O)cc1)NC(=O)[C@H](CCC(=O)O)NC(=O)[C@@H](NC(=O)[C@H](Cc1ccccc1)NC(=O)[C@H](C)NC(=O)[C@H](CCC(=O)O)NC(=O)[C@H](CCC(N)=O)NC(=O)[C@H](C)NC(=O)[C@H](CCCCNC(=O)COCCOCCNC(=O)COCCOCCNC(=O)CC[C@H](NC(=O)CCCCCCCCCCCCCCCCCCC(=O)O)C(=O)O)NC(=O)[C@H](CCCCN)NC(=O)[C@H](CC(=O)O)NC(=O)[C@H](CC(C)C)NC(=O)[C@H](CC(C)C)NC(=O)[C@@H](NC(=O)[C@H](CO)NC(=O)[C@H](Cc1ccc(O)cc1)NC(=O)[C@H](CC(=O)O)NC(=O)[C@H](CO)NC(=O)[C@@H](NC(=O)[C@H](Cc1ccccc1)NC(=O)[C@@H](NC(=O)CNC(=O)[C@H](CCC(=O)O)NC(=O)C(C)(C)NC(=O)[C@@H](N)Cc1ccc(O)cc1)[C@@H](C)O)[C@@H](C)O)[C@@H](C)CC)[C@@H](C)CC)C(=O)N[C@@H](CCC(=O)O)C(=O)NCC(=O)NCC(=O)N1CCC[C@H]1C(=O)N[C@@H](CO)C(=O)N[C@@H](CO)C(=O)NCC(=O)N[C@@H](C)C(=O)N1CCC[C@H]1C(=O)N1CCC[C@H]1C(=O)N1CCC[C@H]1C(=O)N[C@@H](CO)C(N)=O [Example 261] (H-Y[Aib]EGTFTSDYSILLDKK([AEEA-AEEA-γGlu-C20 diacid])AQEAFIEYLIEGGPSSGAPPPS-NH2)
EC50 [1]: 0.0948 nM
EC50 [2]: 0.16 nM

CC[C@H](C)[C@H](NC(=O)[C@H](CC(C)C)NC(=O)[C@H](Cc1ccc(O)cc1)NC(=O)[C@@H](CCC(=O)O)NC(=O)[C@@H](NC(=O)[C@H](Cc1ccccc1)NC(=O)[C@H](CCC(=O)O)NC(=O)C(C)(C)NC(=O)[C@H](CCC(N)=O)NC(=O)[C@H](C)NC(=O)[C@H](CCC(N)=O)NC(=O)[C@H](CCCN)NC(=O)[C@H](CC(=O)O)NC(=O)[C@H](CC(C)C)NC(=O)[C@](C)(CC(C)C)NC(=O)[C@@H](NC(=O)[C@H](CO)NC(=O)[C@H](Cc1ccc(O)cc1)NC(=O)[C@H](CC(=O)O)NC(=O)[C@H](CO)NC(=O)[C@@H](NC(=O)[C@](C)(Cc1ccccc1F)NC(=O)[C@@H](NC(=O)CNC(=O)[C@H](CCC(=O)O)NC(=O)C(C)(C)NC(=O)[C@@H](N)Cc1ccc(O)cc1)[C@@H](C)O)[C@@H](C)O)[C@@H](C)CC)[C@@H](C)CC)C(=O)N[C@@H](CCC(=O)O)C(=O)NCC(=O)NCC(=O)N1CCC[C@H]1C(=O)N[C@@H](CO)C(=O)N[C@@H](CO)C(=O)NCC(=O)N[C@@H](C)C(=O)N1CCC[C@H]1C(=O)N1CCC[C@H]1C(=O)N1CCC[C@H]1C(=O)N[C@@H](CO)C(N)=O [Example 281] (H-Y[Aib]EGT[αMePhe(2-F)]TSDYSI[αMeL]LD[Orn]QAQ[Aib]EFI[dE]YLIEGGPSSGAPPPS-NH2)
EC50 [1]: 0.16 nM
EC50 [2]: 0.166 nM

CC[C@H](C)[C@H](NC(=O)[C@H](CC(C)C)NC(=O)[C@H](Cc1ccc(O)cc1)NC(=O)[C@@H](CCC(=O)O)NC(=O)[C@@H](NC(=O)[C@H](Cc1ccccc1)NC(=O)[C@H](CCC(=O)O)NC(=O)C(C)(C)NC(=O)[C@H](CCC(N)=O)NC(=O)[C@H](C)NC(=O)[C@H](CCCCN)NC(=O)[C@H](CCC(=O)O)NC(=O)[C@H](CC(=O)O)NC(=O)[C@H](CC(C)C)NC(=O)[C@](C)(CC(C)C)NC(=O)[C@@H](NC(=O)[C@H](CO)NC(=O)[C@H](Cc1ccc(O)cc1)NC(=O)[C@H](CC(=O)O)NC(=O)[C@H](CO)NC(=O)[C@@H](NC(=O)[C@](C)(Cc1ccccc1F)NC(=O)[C@@H](NC(=O)CNC(=O)[C@H](CCC(=O)O)NC(=O)C(C)(C)NC(=O)[C@@H](N)Cc1ccc(O)cc1)[C@@H](C)O)[C@@H](C)O)[C@@H](C)CC)[C@@H](C)CC)C(=O)N[C@@H](CCC(=O)O)C(=O)NCC(=O)NCC(=O)N1CCC[C@H]1C(=O)N[C@@H](CO)C(=O)N[C@@H](CO)C(=O)NCC(=O)N[C@@H](C)C(=O)N1CCC[C@H]1C(=O)N1CCC[C@H]1C(=O)N1CCC[C@H]1C(=O)N[C@@H](CO)C(N)=O [Example 276] (H-Y[Aib]EGT[αMePhe(2-F)]TSDYSI[αMeL]LDEKAQ[Aib]EFI[dE]YLIEGGPSSGAPPPS-NH2)
EC50 [1]: 0.108 nM
EC50 [2]: 0.0757 nM

CC[C@H](C)[C@H](NC(=O)[C@H](CC(C)C)NC(=O)[C@](C)(Cc1ccc(O)cc1)NC(=O)[C@@H](CCC(=O)O)NC(=O)[C@@H](NC(=O)[C@H](Cc1ccccc1)NC(=O)[C@H](CCC(=O)O)NC(=O)C(C)(C)NC(=O)[C@H](CCC(N)=O)NC(=O)[C@H](C)NC(=O)[C@H](CCC(N)=O)NC(=O)[C@H](CCCN)NC(=O)[C@H](CC(=O)O)NC(=O)[C@H](CC(C)C)NC(=O)[C@](C)(CC(C)C)NC(=O)[C@@H](NC(=O)[C@H](CO)NC(=O)[C@H](Cc1ccncc1)NC(=O)[C@H](CC(=O)O)NC(=O)[C@H](CO)NC(=O)[C@@H](NC(=O)[C@](C)(Cc1ccccc1F)NC(=O)[C@@H](NC(=O)CNC(=O)[C@H](CCC(=O)O)NC(=O)C(C)(C)NC(=O)[C@@H](N)Cc1ccc(O)cc1)[C@@H](C)O)[C@@H](C)O)[C@@H](C)CC)[C@@H](C)CC)C(=O)N[C@@H](CCC(=O)O)C(=O)NCC(=O)NCC(=O)N1CCC[C@H]1C(=O)N[C@@H](CO)C(=O)N[C@@H](CO)C(=O)NCC(=O)N[C@@H](C)C(=O)N1CCC[C@H]1C(=O)N1CCC[C@H]1C(=O)N1CCC[C@H]1C(=O)N[C@@H](CO)C(N)=O [Example 285] (H-Y[Aib]EGT[αMePhe(2-F)]TSD[4Pal]SI[αMeL]LD[Orn]QAQ[Aib]EFI[dE][αMeY]LIEGGPSSGAPPPS-NH2)
EC50 [1]: 0.072 nM
EC50 [2]: 0.0884 nM

Reference: patent US12252524B2, “GIP/GLP1 co-agonist compounds” (Eli Lilly and Company, priority 2018, dated 2025)
